Data reported in patent publication US6361792B1, “Lipid dispersions and methods of use” (Alliance Pharmaceutical Corp., priority 1987, dated 2002).
“Also recorded” adds a separate entry of the source.

What was measured:
conscious swine = assay: Delayed febrile response (core body temperature) to intravenous lipid dispersion in conscious swine, with or without prophylaxis; type: in vivo; conditions: for effect on febrile reaction to fluorocarbon emulsion: prophylactic treatment, dose not given
Experimental: Swine were instrumented 48 hours prior to study for determination of core body temperature using a catheter-tipped thermistor, and for intravenous injection using an axillary vein catheter. On the day of study, core body temperature was determined at baseline and at regular intervals for 6 h after intravenous injection of Imagent®BP.

tumor-bearing animals = conditions: cited from earlier work
anesthetized swine = assay: Prophylaxis of the acute hemodynamic response to intravenous fluorocarbon emulsion with cyclooxygenase inhibitors
From the text: All animals were fully anesthetized (ketamine-sodium pentobarbital), placed on positive pressure ventilation, and instrumented for determination of pulmonary artery pressure, cardiac output, ECG (electrocardiogram), right atrial pressure, and whole blood samples collections. Changes in skin color were also quantified using a relative color scale ranging from normal (light pink) to darker shades of pink and purple. Continuous electrocardiographs and oscillographic recordings of blood pressures were made. At least 30 minutes of baseline data were collected before intravascular administration of the substances. After control recordings, infusion of the pigs was carried out with 3 ml/kg body weight of either fluorocarbon emulsion as Imagent®BP (90% or 100% perfluorooctylbromide) or saline at a rate of 2 ml/min i.v. over 15 minutes.
A series of experiments was conducted to evaluate the effects of prophylactic treatment with cyclooxygenase inhibitors on the acute hemodynamic response to intravenous injection of 90% Imagent®BP in anesthetized swine. […] Animals receiving prophylaxis were administered indomethacin (0.5 mg/kg p.o.) prior to administration of the test article. Test swine were treated prophylactically with indomethacin, ibuprofen and aspirin.

thromboxane synthetase = molecular target: T1, thromboxane synthetase (Rattus norvegicus, UniProt P49430); conditions: in the rat; cited from earlier work
T1 sequence (P49430 1-533): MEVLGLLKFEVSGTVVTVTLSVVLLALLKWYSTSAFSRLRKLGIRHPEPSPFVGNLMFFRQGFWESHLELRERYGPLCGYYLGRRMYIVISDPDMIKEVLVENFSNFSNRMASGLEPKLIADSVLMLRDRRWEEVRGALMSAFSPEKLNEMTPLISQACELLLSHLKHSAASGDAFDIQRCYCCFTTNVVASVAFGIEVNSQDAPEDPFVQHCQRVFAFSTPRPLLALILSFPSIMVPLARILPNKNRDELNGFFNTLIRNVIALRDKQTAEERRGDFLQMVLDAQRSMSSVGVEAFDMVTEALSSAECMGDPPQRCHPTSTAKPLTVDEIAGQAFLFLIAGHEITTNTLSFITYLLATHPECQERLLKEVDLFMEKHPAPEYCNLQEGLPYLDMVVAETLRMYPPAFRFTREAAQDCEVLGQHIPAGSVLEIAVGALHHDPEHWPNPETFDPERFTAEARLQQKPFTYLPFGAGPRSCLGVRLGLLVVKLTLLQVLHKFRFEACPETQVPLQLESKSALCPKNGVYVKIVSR

## CC(C)Cc1ccc(C(C)C(=O)O)cc1 (racemic) [ibuprofen, (±)-2-(p-isobutylphenyl)propionic acid]
Conscious swine; oral 20 mg/kg 1 h before injection, 6 h time course
  effect on febrile response to Imagent BP: significantly suppressed
tumor-bearing animals
  symptoms in reaction to intravenous fluorocarbon emulsion: alleviated
Anesthetized swine; oral 20 mg/kg 1 h before Imagent BP 3 ml/kg i.v., 20 mg/kg
  effect on acute hemodynamic response (mPAP) to Imagent BP: prevent the acute hemodynamic response
Anesthetized swine; oral 20 mg/kg 1 h before Imagent BP 3 ml/kg i.v., listed as Ibuprofen, 20 mg/kg
  effect on acute hemodynamic response (mPAP) to Imagent BP: significantly attenuated the mPAP responses

## Cn1ccnc1 [1-methyl-imidazole]
Thromboxane synthetase
  inhibition of thromboxane synthetase: act effectively to inhibit thromboxane synthetase

## O=C(O)CCCCCc1cccc2cncn12 [CGS 13080, imidazo(1,5-pyridine-5-hexanoic acid)]
Thromboxane synthetase
  inhibition of thromboxane synthetase: act effectively to inhibit thromboxane synthetase

## O=C(O)CCCCCCCn1ccnc1 [N(7-carboxyheptyl)imidazole]
Thromboxane synthetase
  inhibition of thromboxane synthetase: act effectively to inhibit thromboxane synthetase

## CC(=O)Nc1ccc(O)cc1 [acetaminophen]
Conscious swine
  effect on febrile reaction to fluorocarbon emulsion: not prevented

## CC(=O)Oc1ccccc1C(=O)O [aspirin, acetylsalicylic acid]
Conscious swine
  effect on febrile reaction to fluorocarbon emulsion: not prevented
Anesthetized swine; aspirin pretreatment vs Fluosol alone, FIG. 2
  effect on increased mPAP response to Fluosol (20% fluorocarbon emulsion): decreased response
Anesthetized swine; aspirin prophylaxis, oral 5 mg/kg 1 h before
  blood cell counts (erythrocytes, leukocytes, platelets) after Imagent BP: nearly identical to that seen with the saline control
Anesthetized swine; oral 5 mg/kg 1 h before Imagent BP (90%) 3 ml/kg i.v., 5 mg/kg
  effect on acute hemodynamic response (mPAP) to Imagent BP: prevent the acute hemodynamic response; also recorded: appeared to completely block any increases in mPAP

## O=C(O)c1ccc(OCCn2ccnc2)cc1 [dazoxiben, 4-(2-(1 H-imidazol-1 yl)ethoxy)benzoic acid]
Thromboxane synthetase
  inhibition of thromboxane synthetase: act effectively to inhibit thromboxane synthetase

## COc1ccc2c(c1)c(CC(=O)O)c(C)n2C(=O)c1ccc(Cl)cc1 [indomethacin, 1-(pchlorobenzoyl)-5-methoxy-2-methylindole-3-acetic acid]
Anesthetized swine; indomethacin i.v. bolus 10 mg/kg then 6 mg/kg/hr, Imagent BP 90% 3 ml/kg i.v.
  effect on acute hemodynamic response (mPAP) to Imagent BP: prevent the acute hemodynamic response; also recorded: virtually prevented all of the hemodynamic reactions

## COc1ccc2cc([C@H](C)C(=O)O)ccc2c1 [naproxen]
Conscious swine; oral 5 mg/kg 1 h before injection (naproxen), 5 mg/kg
  effect on febrile response to Imagent BP: attenuated febrile response

## methylprednisone
Conscious swine; oral 5 mg/kg 12 h and 2 h before injection (methylprednisone), 5 mg/kg
  effect on febrile response to Imagent BP: attenuated febrile response
Conscious swine; oral 5 mg/kg 12 h and 2 h before injection (methylprednisone), listed as Methylprednisone, 5 mg/kg
  effect on febrile response to Imagent BP: attenuates the response
